Measurements taken from US12486255B2, “Modulators of RAS GTPase” (Tosk, Inc., priority 2018, dated 2025).

Columns and labels:
SW480 cells = assay: Cytotoxicity assay, CellTiter-Glo 2.0, SW480 cells; format: cell-based; settings: SW480, human colon cancer cell line expressing kRAS G12V; 48 hours
Description: FIG. 2, panels A-B, illustrate the cytotoxicity of Structure 2 and Structure 3 on SW480 cells. The cytotoxicity of compounds of interest was tested against the human colon cancer cell line SW480 as described in the experimental section. SW480 cells express a mutant G12V kRAS. Compounds were incubated with cells for 48 hours and the assay was developed using Cell Titer Glo 2.0. IC50 vales were determined using GraphPad Prism 4.
(§1) Compounds were assayed for inhibition of cell proliferation and killing cancer cells. Cytotoxicity assays were conducted according to the following general procedure. SW480, SW48, SW900, SW620 were all maintained in Leibowitz L15 media supplemented with 10% fetal bovine serum and 1% PenStrep and grown in a 37° C. incubator without supplemental CO2. Capan-1 cells were maintained in Iscove's Modified Dulbecco's Medium (ATCC 30-2005) containing 20% fetal bovine serum and 1% PenStrep and grown in a 37° C. incubator containing 5% CO2.
(§2) For dose-response assays, SW480 cells were plated into 96 well plates (1 million/plate, ˜10,000/well, 250 μL media/well). Cells were allowed to settle and adhere to plate bottom overnight Compounds were placed in 500 μL media and mixed. Then 250 μL compounds+media was placed in an intermediate plate in row A. Rows B through H were filled with 125 μL media. […] Luminescence was read with FLx800 (BioTek Instruments).

SW620 cells = assay: Cytotoxicity assay, CellTiter-Glo 2.0, SW620 cells; format: cell-based; settings: SW-620; SW620, human colon cancer cell line expressing mutant G12V kRAS; 48 hours
Description: FIG. 6, panels A-B, illustrate the cytotoxicity of Structure 2 and Structure 3 on SW620 Cells. The cytotoxicity of compounds of interest were tested against the human colon cancer cell line SW620 as described in the experimental section. SW620 cells express a mutant G12V kRAS. Compounds were incubated with cells for 48 hours and the assay was developed using Cell Titer Glo 2.0. IC50 values were determined using GraphPad Prism4.
as §1, §2

[1] = test system: phosphorylated ERK 1/2 (T202/Y204); assay: Phosphorylated ERK bioassay (Western blot, SW480 cells); format: cell-based, human; settings: 3 μM, 24 hours, in the presence of serum
Description: As described herein, the main downstream target for kRAS is ERK (Samatar et al., Targeting RAS-ERK signaling in cancer: promises and challenges. Nat Rev Drug Discov. 2014; 13:928-42). kRAS activates ERK leading to phosphorylated ERK. A compound that suppresses kRAS activity is expected to lower phosphorylated ERK.
Test articles abrogate the expression of phosphorylated ERK (T202/Y204) SW480 cells were subjected to test article incubation at 3 μM for 24 hours in the presence of serum to mimic natural growth environment. Cells were extracted and total protein of samples normalized through BCA assay. Processed extracts were subjected to SDS-PAGE/Western blot and blotted for phosphorylated ERK 1/2 (T202/Y204); ERK 1/2; and α-Tubulin.
The compound U0126 in FIG. 8 is a MEK inhibitor which is known to suppress phosphorylation of ERK. The compound was tested along with the test articles to serve as a positive control.

[2] = Multi-day safety study in mice; format: in vivo; settings: female CD1 mice, 2 mg/kg ip daily for 6 days
Description: The multi-day safety study used female, 10 week old, CD1 mice (4/treatment group) dosed with DMSO. Mice were administered 2 mg/kg of Structure 2 or 10 mg/kg Structure 3, ip, daily for 6 days and evaluated for changes clinical chemistry values, hematology values and animal weight as well as signs of health and grooming habits.
Heparinized blood samples were obtained by retro-orbital puncture on Day 6, 12 hours after the last dose of Structure 2. The plasma harvested from the blood was analyzed for standard clinical chemistry parameters (ALB. ALP, ALT, AMY, TBIL, BUN, CA, PHOS, CRE GLU, NA, K, TP & GLOB) and hematology (WBC, LYM, MON, GRA, RBC, HGB, HCT, MCV, MCH, MCHC, RDWc, PLT, PCT, MPV, PDWc) analytes (see definitions herein). Animal weight changes were also monitored. Values for all analytes were analyzed by one way ANOVA plus post-hoc Bonferroni using SPSS (IBM, Armonk, NY).

Cc1nc(-c2ccc(CNC(=O)c3cc(CC(C)C)nn3C)cc2)no1 [Structure 2, 3-isobutyl-1-methyl-N-(4-(5-methyl-1,2,4-oxadiazol-3-yl)benzyl)-1H-pyrazole-5-carboxamide]
IC50 (SW480 cells): 0.232 µM | IC50 (SW620 cells): 0.055 µM | phosphorylated ERK (T202/Y204) [1]: dramatically decrease phosphorylated ERK | body weight or grooming habits versus dosing vehicle treated animals [2]: no statistically significant difference | clinical chemistry changes versus dosing vehicle treated animals [2]: no significant clinical chemistry changes | ALB ([2]; Day 6): 3.88 ± 0.30 g/dL | ALP ([2]; Day 6): 66.50 ± 8.80 U/L | ALT ([2]; Day 6): 59.00 ± 32.50 U/L | AMY ([2]; Day 6): 871.50 ± 74.70 U/L | BUN ([2]; Day 6): 18.25 ± 4.10 mg/dL | CRE ([2]; Day 6): 0.34 ± 0.10 mg/dL | Ca^++ ([2]; Day 6): 9.43 ± 0.40 mg/dL | GLOB ([2]; Day 6): 1.23 ± 0.10 g/dL | GLU ([2]; Day 6): 234.25 ± 31.70 mg/dL | GRA ([2]; Day 6): 1.23 ± 0.20 10^9/l | GRA (%) ([2]; Day 6): 19.03 ± 3.70% | HCT ([2]; Day 6): 44.34 ± 4.60% | HGB ([2]; Day 6): 15.23 ± 1.70 g/dL | K^+ ([2]; Day 6): 5.35 ± 0.40 mmol/L | LYM ([2]; Day 6): 5.17 ± 1.80 10^9/l | LYM (%) ([2]; Day 6): 76.18 ± 3.50% | MCH ([2]; Day 6): 16.15 ± 0.40 pg | MCHC ([2]; Day 6): 34.35 ± 1.30 g/dL | MCV ([2]; Day 6): 47.00 ± 2.40 fL | MON ([2]; Day 6): 0.33 ± 0.10 10^9/l | MON (%) ([2]; Day 6): 4.85 ± 0.40% | MPV ([2]; Day 6): 7.10 ± 0.60 fL | NA^+ ([2]; Day 6): 147.00 ± 0.80 mmol/L | PCT ([2]; Day 6): 0.31 ± 0.10% | PDWc ([2]; Day 6): 33.08 ± 3.40% | PHOS ([2]; Day 6): 8.13 ± 1.00 mg/dL | PLT ([2]; Day 6): 448.50 ± 193.10 10^9/l | RBC ([2]; Day 6): 9.44 ± 1.00 10^12/l | RDWc ([2]; Day 6): 17.40 ± 0.40% | TBIL ([2]; Day 6): 0.43 ± 0.00 mg/dL | TP ([2]; Day 6): 5.08 ± 0.20 g/dL | WBC ([2]; Day 6): 6.72 ± 2.00 10^9/l
